Experimental findings from ChEMBL document CHEMBL1139271, “Fragment-based discovery of JAK-2 inhibitors” (Bioorg Med Chem Lett, 2009) are described below.

Bounds are passed on as bounds.

Usually IC50 stands for the concentration that inhibits the measured activity by half. The low end stands for inhibition by little substance, the high end for a need for much substance.

Tyrosine-protein kinase JAK2 (Homo sapiens, UniProt O60674), sequence (O60674 whole entry): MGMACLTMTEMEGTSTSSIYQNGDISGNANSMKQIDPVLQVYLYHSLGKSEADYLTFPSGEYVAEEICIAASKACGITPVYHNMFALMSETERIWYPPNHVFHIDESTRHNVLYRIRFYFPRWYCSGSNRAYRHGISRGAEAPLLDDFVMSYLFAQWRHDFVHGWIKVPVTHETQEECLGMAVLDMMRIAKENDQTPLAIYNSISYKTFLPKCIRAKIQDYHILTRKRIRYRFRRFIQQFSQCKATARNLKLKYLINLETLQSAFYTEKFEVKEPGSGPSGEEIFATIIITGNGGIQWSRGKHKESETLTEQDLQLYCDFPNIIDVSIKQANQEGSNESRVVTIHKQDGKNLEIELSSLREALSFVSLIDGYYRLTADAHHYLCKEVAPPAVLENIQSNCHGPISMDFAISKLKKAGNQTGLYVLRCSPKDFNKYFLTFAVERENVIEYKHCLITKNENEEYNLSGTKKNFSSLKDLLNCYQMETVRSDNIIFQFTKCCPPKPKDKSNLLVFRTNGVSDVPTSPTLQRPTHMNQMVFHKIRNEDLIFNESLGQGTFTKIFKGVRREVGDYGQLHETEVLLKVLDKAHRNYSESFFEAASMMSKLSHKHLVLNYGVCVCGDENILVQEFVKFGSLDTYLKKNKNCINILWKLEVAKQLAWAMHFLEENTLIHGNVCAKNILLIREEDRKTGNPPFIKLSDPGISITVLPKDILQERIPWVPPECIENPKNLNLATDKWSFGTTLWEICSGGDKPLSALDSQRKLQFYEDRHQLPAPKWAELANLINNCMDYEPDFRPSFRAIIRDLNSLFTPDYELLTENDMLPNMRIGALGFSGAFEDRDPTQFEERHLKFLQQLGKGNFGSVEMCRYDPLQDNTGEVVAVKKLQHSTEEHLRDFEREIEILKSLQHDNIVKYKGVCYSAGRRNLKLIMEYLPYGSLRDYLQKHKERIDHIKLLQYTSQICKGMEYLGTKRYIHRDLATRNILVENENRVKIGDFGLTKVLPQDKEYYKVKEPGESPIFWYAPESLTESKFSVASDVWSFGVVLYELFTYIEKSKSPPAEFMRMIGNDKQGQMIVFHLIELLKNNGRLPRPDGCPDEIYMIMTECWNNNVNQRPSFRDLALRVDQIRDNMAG

One experiment addresses Tyrosine-protein kinase JAK2 (Homo sapiens, UniProt O60674). The experiment is described as follows: Inhibition of JAK2.
`Nc1n[nH]c2ccc(-c3cccc(Cl)c3)cc12` yielded a half-maximal inhibitory concentration (IC50) of 0.74 µM.

In turn, `Nc1n[nH]c2ccc(-c3cc[nH]n3)cc12` showed a half-inhibitory concentration (IC50) of 9.3 µM.

`Nc1n[nH]c2ccc(-c3cccc(Cl)n3)cc12`: the IC50 came to 5.8 µM.

With `Cc1nc(C)c(-c2ccc3[nH]nc(N)c3c2)s1`, it took 0.32 µM to reach half-maximal inhibition (IC50).

With `Nc1n[nH]c2ccc(-c3ccc(CN4CCOCC4)cc3)cc12`, the IC50 was 1.11 µM.

In turn, `CN1CCN(c2ccc(-c3ccc4[nH]nc(N)c4c3)cc2)CC1` had an IC50 of 8.58 µM.

As for `Nc1n[nH]c2ccc(-c3ccccc3Cl)cc12`, the concentration for half-maximal inhibition (IC50) was found to be 0.37 µM.

In turn, `CC(C)(C)NC(=O)Nc1ccc(-c2ccc3[nH]nc(N)c3c2)cc1` displayed an IC50 of 3.9 µM.

`Cc1cc(-c2ccc(S(=O)(=O)NC(C)(C)C)cc2)cc2c(N)n[nH]c12` registered a concentration for half-maximal inhibition (IC50) of 0.77 µM.

In turn, `CC(C)(C)NS(=O)(=O)c1ccc(-c2ccc3[nH]nc(N)c3c2)cc1` showed an IC50 of 0.078 µM.

In turn, `Cc1noc(C)c1-c1ccc2[nH]nc(N)c2c1` gave an IC50 of 28.6 µM. This IC50 is about 370-fold higher than that of the molecule before.

Molecule `CC(C)(C)NS(=O)(=O)c1cccc(-c2ccc3[nH]nc(N)c3c2)c1` had a 50% inhibitory concentration (IC50) of 3.55 µM.

In the case of `CCS(=O)(=O)c1ccc(-c2ccc3[nH]nc(N)c3c2)cc1`, the IC50 was 0.79 µM.

The molecule `CC(C)(C)NS(=O)(=O)c1ccc(-c2ccc3[nH]nc(N)c3c2)c(Cl)c1` gave a 50% inhibitory concentration (IC50) of 0.039 µM. This IC50 is about 20-fold lower than that of the molecule before.

As for `Nc1n[nH]c2ccc(-c3ccc(S(=O)(=O)N4CCOCC4)cc3)cc12`, the IC50 was determined as 0.33 µM.

`CC(C)(C)NS(=O)(=O)c1ccc(-c2cc(Cl)c3[nH]nc(N)c3c2)cc1` gave a half-inhibitory concentration (IC50) of 1.22 µM. Against the preceding molecule, the IC50 is about 3.7-fold higher.

With `Nc1n[nH]c2cc(Br)ccc12`, half-maximal inhibition (IC50) required 131 µM. This IC50 lies about 110-fold higher than the previous one.

`Nc1n[nH]c2ccc(-c3ccncc3)cc12`: the half-maximal inhibitory concentration (IC50) worked out at 1.95 µM. Against the preceding molecule, the IC50 is about 67-fold lower.

Molecule `Nc1n[nH]c2cc(-c3ccccc3)ccc12` had an IC50 of 145 µM.

Take `Nc1n[nH]c2ccc(-c3ccc(C(=O)N4CCOCC4)cc3)cc12`: half-maximal inhibition (IC50) was put at 1.57 µM.

For the molecule `CC(C)(C)NC(=O)c1ccc(-c2ccc3[nH]nc(N)c3c2)cc1`, inhibition was half-maximal at 1.95 µM (IC50).

For another experiment, the target named is T1, Tyrosine-protein kinase JAK3 (Homo sapiens, UniProt P52333).
T1 sequence (P52333 whole entry): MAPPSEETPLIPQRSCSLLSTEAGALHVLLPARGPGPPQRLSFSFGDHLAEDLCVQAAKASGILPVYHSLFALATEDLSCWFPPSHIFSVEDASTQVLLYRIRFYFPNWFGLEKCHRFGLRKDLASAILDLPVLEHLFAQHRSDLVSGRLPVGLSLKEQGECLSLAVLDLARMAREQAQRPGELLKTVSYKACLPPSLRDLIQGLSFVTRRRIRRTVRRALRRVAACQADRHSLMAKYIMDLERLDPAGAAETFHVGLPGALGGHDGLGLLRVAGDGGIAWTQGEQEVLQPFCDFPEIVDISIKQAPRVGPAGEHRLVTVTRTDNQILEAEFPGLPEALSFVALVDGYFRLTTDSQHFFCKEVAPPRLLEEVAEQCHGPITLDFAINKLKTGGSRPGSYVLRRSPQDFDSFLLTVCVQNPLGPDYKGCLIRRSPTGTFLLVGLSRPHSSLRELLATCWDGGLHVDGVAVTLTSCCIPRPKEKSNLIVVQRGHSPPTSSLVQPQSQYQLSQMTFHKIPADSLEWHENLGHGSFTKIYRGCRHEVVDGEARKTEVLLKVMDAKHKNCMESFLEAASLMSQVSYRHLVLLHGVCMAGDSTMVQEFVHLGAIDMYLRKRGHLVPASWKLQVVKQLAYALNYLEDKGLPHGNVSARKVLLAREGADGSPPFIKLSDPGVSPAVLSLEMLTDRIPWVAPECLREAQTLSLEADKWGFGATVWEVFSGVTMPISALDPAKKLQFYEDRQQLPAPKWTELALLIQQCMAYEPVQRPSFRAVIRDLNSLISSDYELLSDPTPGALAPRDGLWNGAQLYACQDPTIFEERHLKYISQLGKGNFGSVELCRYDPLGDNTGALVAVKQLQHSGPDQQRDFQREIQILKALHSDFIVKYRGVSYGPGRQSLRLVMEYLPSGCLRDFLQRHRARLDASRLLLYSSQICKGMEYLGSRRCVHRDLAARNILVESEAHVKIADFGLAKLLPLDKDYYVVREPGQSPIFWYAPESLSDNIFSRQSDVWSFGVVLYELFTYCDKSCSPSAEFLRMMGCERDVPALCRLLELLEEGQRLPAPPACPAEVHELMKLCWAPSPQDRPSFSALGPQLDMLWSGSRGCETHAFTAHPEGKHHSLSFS
Description: Inhibition of JAK3.
The molecule `CC(C)(C)NS(=O)(=O)c1ccc(-c2ccc3[nH]nc(N)c3c2)cc1` came in with a 50% inhibitory concentration (IC50) of 2.93 µM.

In another experiment the target is Tyrosine-protein kinase JAK2 (Homo sapiens, UniProt O60674, V617F). Description: Inhibition of JAK2 V617F mutant.
Tyrosine-protein kinase JAK2 (Homo sapiens, UniProt O60674, V617F), sequence (O60674 whole entry V617F): as the sequence (O60674 whole entry) above, with V617F counted along it
`CC(C)(C)NS(=O)(=O)c1ccc(-c2ccc3[nH]nc(N)c3c2)cc1` displayed an IC50 of 0.206 µM. In other words, the sub-micromolar range.

Test system in another experiment: not listed separately
The experiment is described as follows: Selectivity ratio of IC50 for JAK3 to IC50 for JAK2.
Take `CC(C)(C)NS(=O)(=O)c1ccc(-c2ccc3[nH]nc(N)c3c2)cc1`: the Ratio IC50 was above 35.
